Laboratory results reported in patent publication US10196356B2, “Mixed disulfide conjugates of thienopyridine compounds and uses thereof” (The Regents of the University of Michigan, priority 2013, dated 2019).

How the values were obtained:
platelets = test: Platelet aggregation assay with conjugates pre-incubated with GSH (Example III); assay type: cell-based, rabbits; conditions: 5 μM ADP; for inhibition of platelet aggregation: conjugate incubated with 1 mM GSH 37° C. 30 min, compared with negative control without conjugate
Procedure: Approximately 20 ml blood was drawn from rabbits and platelets were collected by centrifugation whereas the supernatants were collected as platelet poor plasma (PPP). Prior to the inhibition assay, the conjugates of Clop-CPT and Tic-NPT were dissolved in 0.5 ml PPP and incubated with 1 mM GSH at 37° C. for 30 min to produce the active metabolite. The platelets were then re-suspended gently in the PPP containing the active metabolite. After incubation at 37° C. for one hour, platelet aggregation was initiated by the addition of 5 μM of the agonist ADP. Platelet aggregation was then recorded using an aggregometer.

[1] = system: platelets (P2Y12 receptor); test: Ex vivo anti-platelet activity of the mixed disulfide conjugates (ADP-induced aggregation, aggregometer); assay type: cell-based, New Zealand white rabbits; conditions: 10 μM ADP; for inhibition of platelet aggregation, conjugate itself: not treated with GSH
Procedure: The mixed disulfide conjugates were prepared and purified from the reaction mixtures in the presence of 0.3 mM CPT and NPT, along with three control samples containing either 1 mM GSH, no thiol reductant or no G6PD. All samples were re-suspended in 0.5 ml PPP, some of which were treated to 1 mM GSH to release the AM. Platelet aggregation was initiated by the addition of 10 μM ADP and recorded with an aggregometer. The percentage of aggregation was normalized to that of PRP and averaged over four separate measurements. For details, see Materials and Methods. Legend: PRP, untreated platelet-rich plasma; GSH, 1 mM GSH in PRP; −G6PD, metabolites produced in the absence of G6PD; —SH, metabolites produced in the absence of any thiol reductants; GSH, metabolites produced in the presence of 1 mM GSH; CPT, metabolites produced in the presence of 0.3 mM CPT; CPT+GSH, metabolites produced in the presence of 0.3 mM CPT and then treated with 1 mM GSH; NPT, metabolites produced in the presence of 0.3 mM NPT; NPT+GSH, metabolites produced in the presence of 0.3 mM NPT and then treated with 1 mM GSH.
In order to generate sufficient quantities of the mixed disulfide conjugates, the metabolism of 2-oxoclopidogrel was performed in 2-ml reaction mixtures containing 1 mg/ml HLM, 0.1 mM 2-oxoclopidogrel, the NADPH-regenerating system, and 0.3 mM CPT or NPT or 1 mM GSH. The reaction was initiated by the addition of 10 units G6PD and incubated at 37° C. for 50 min. Two control samples were prepared in parallel. […] After an incubation of 50 min, the reaction mixtures were centrifuged at 13,000×g to remove the HLMs. The supernatants were loaded onto SPE C18 cartridges to enrich the mixed disulfide conjugates. After extensive washing with water to remove salts and other water-soluble metabolites, the conjugate samples were eluted with 2 ml of methanol. The methanolic fractions were dried using a Speedvac concentrator and the dried samples were then re-suspended in 1 ml of platelet-poor plasma (PPP). Prior to the anti-platelet activity assays, the re-suspended conjugates were divided into two equal volumes (0.5 ml each), one of which was treated with 1 mM GSH at 37° C. for 30 min to generate the AM. Both samples were then placed on ice until use.
The procedures used to determine ex vivo anti-platelet activity were previously reported (see, e.g., Abell L M and Liu E C (2011) J Pharm Exp Ther 339(2):589-596).
Male New Zealand white rabbits (2.2-2.9 kg) were used as blood donors. Whole blood was drawn from a central ear artery into a plastic syringe containing 3.7% sodium citrate as the anticoagulant (1:10 volume ratio of citrate to blood). A whole blood cell count was determined with a Medonic CA620 hematology analyzer (Clinical Diagnostic Solutions, Inc., Plantation, Fla., USA). Platelet-rich plasma (PRP), the supernatant present after centrifugation of whole blood at 100×g for 10 min, was diluted with PPP to achieve a platelet count of approximately 300,000/μl. Platelet-poor plasma was prepared by centrifuging the remaining blood at 1,500×g for 10 min and discarding the bottom cellular layer. The diluted PRP was divided into 0.5 ml samples, centrifuged again at 170×g for 10 mins, and the resulting supernatant was discarded. The platelet pellets were re-suspended in platelet-poor plasma containing the various chemical inhibitors prepared as described previously and incubated with gentle shaking at 37° C. for 60 min to modify the P2Y12 receptor. Ex vivo platelet aggregation was assessed by established nephelometric methods with the use of a 4-channel aggregometer (BioData PAP-4; BioData Corp., Horsham, Pa., USA) by recording the increase in light transmission through a stirred suspension of PRP maintained at 37° C. Platelet aggregation was induced with ADP (10 μM). A subaggregatory concentration of epinephrine (550 nM) was used to prime the platelets before addition of the agonist.

[2] = Kinetics for the reduction of the mixed disulfide conjugates of clopidogrel by GSH (conversion to the AM); assay type: in vitro ADME; conditions: for first order rate constant for the loss of the mixed disulfide conjugate: 0.2 mg/ml cytosol, 37° C.; for second order rate constant for the loss of the conjugate: equivalent from pseudo first order with 1 mM GSH, with cytosol
Procedure: The mixed disulfide conjugates were prepared from the reaction mixtures containing 1 mg/ml HLM, 0.1 mM 2-oxoclopidogrel, the NADPH-regenerating system and various thiol reductants and purified using SPE C18 cartridges as described in Materials and Methods. The purified conjugates were then mixed with 1 mM GSH and 0.2 mg/ml cytosol (when present). The conjugate remaining and the AM formed were analyzed using LC-MS/MS. Legend: (A) reduction of the conjugates of BME (◯), CPT (▪), NAC (▾), DFT (▴), and NPT (□) by 1 mM GSH in the presence of 0.2 mg/ml cytosol. (B) reduction of the CPT conjugate by 1 mM GSH in the presence and absence of 0.2 mg/ml cytosol. Legend: (◯), formation of AM in the absence of cytosol; (Δ), formation of the AM in the presence of cytosol; (●), reduction of the conjugate in the absence of cytosol; (▴), reduction of the conjugate in the presence of cytosol. The solid and dashed lines are non-linear curve fittings to a single exponential function.
To examine the reactivity of the mixed disulfide conjugates, the kinetics for the reduction of the mixed disulfide conjugates by GSH were determined. The mixed disulfide conjugates were generated in 1 ml of 50 mM KPi buffer (pH 7.4) buffer containing 1 mg/ml HLM, 0.1 mM 2-oxoclopidogrel and 0.3 or 1 mM thiol reductants. The reaction was incubated at 37° C. for 50 min after initiated by the addition of G6PD. The reaction mixture was then centrifuged at 13,000×g to remove the HLMs and the supernatant was loaded to a pre-conditioned SPE cartridge (C18, 100 mg/1 ml, Agilent Technologies, CA) and the mixed disulfide conjugate was eluted with 2 ml of methanol. The eluent was then dried using a Speedvac concentrator and the dried sample was stored at −80° C. until use. Prior to the kinetic measurements, the dried samples were first re-dissolved in 0.5 ml of 50 mM KPi buffer (pH 7.4) and then equilibrated at 37° C. for 5 min. Small aliquots (1-5 μl) of stock GSH and cytosol (when present) solutions were added to the conjugate samples at 1 mM and 0.2 mg/ml, respectively, to initiate the thiol-disulfide exchange reaction. At designated times, an aliquot of 50 μl of the reaction mixture was withdrawn and mixed with 25 μl of 10% acetic acid in acetonitrile to terminate the thiol-disulfide exchange reaction. The t=0 sample was prepared immediately prior to the addition of GSH. The amounts of the mixed disulfide conjugates and the AM were analyzed using LC-MS/MS as described above.

[3] = conjugate treated with 1 mM GSH 37° C. 30 min, normalized to PRP
[4] = 1 mM GSH, in the absence of cytosol
[5] = 1 mM GSH, in the presence of cytosol (FIG. 5B)

Compound: O=C(O)/C=C1/CN(Cc2ccccc2Cl)CCC1SSc1ncccc1[N+](=O)[O-] (stereo not drawn) [Tic-NPT, (Z)-2-(1-(2-chlorobenzyl)-4-((3-nitropyridin-2-yl)disulfanyl)piperidin-3-ylidene)acetic acid]
- inhibition of platelet aggregation (platelets): approximately 60%

Compound: COC(=O)C(c1ccccc1Cl)N1CCC(SSc2ccc(Cl)nn2)/C(=C\C(=O)O)C1 (stereo not drawn) [Clop-CPT]
- inhibition of platelet aggregation [1, 3]: ~50%
- inhibition of platelet aggregation, conjugate itself ([1]; normalized to PRP): did not inhibit platelet aggregation
- inhibition of platelet aggregation (platelets): approximately 60%
- first order rate constant for the loss of the mixed disulfide conjugate ([2]; 1 mM GSH): 0.79 min⁻¹
- rate constant for the formation of the AM [2, 4]: 0.35 min⁻¹
- rate constant for the reduction of the conjugate [2, 4]: 0.39 min⁻¹
- rate constant for the formation of the AM [2, 5]: 0.50 min⁻¹
- rate constant for the reduction of the conjugate [2, 5]: 0.73 min⁻¹
- second order rate constant for the loss of the conjugate [2]: 13 M⁻¹ s⁻¹

Compound: COC(=O)[C@H](c1ccccc1Cl)N1CCC(SSCCO)C(=CC(=O)O)C1 (stereo partly drawn) [BME conjugate]
- first order rate constant for the loss of the mixed disulfide conjugate ([2]; 1 mM GSH): 0.07 min⁻¹
- conjugate remaining after incubation ([2]; 40 min, 1 mM GSH, cytosol): ~50%
- second order rate constant for the loss of the conjugate [2]: 1.2 M⁻¹ s⁻¹

Compound: COC(=O)[C@H](c1ccccc1Cl)N1CCC(S)/C(=C\C(=O)O)C1 (stereo partly drawn) [AM, reference compound]
- inhibition of platelet aggregation ([1]; sample from HLM reaction mixture containing 1 mM GSH (AM, estimated 1-4 μM)): ~60%
- level of inhibition of platelet aggregation relative to the conjugates (platelets; positive control: active metabolite generated from HLMs): approximately the same

Compound: COC(=O)[C@H](c1ccccc1Cl)N1CCC(SSc2cc(C)oc2C)C(=CC(=O)O)C1 (stereo partly drawn) [DFT conjugate]
- first order rate constant for the loss of the mixed disulfide conjugate ([2]; 1 mM GSH): 1.65 min⁻¹
- second order rate constant for the loss of the conjugate [2]: 28 M⁻¹ s⁻¹

Compound: COC(=O)[C@H](c1ccccc1Cl)N1CCC2SC(=O)C=C2C1 (stereo partly drawn) [2-oxoclopidogrel, reference compound]
- inhibition of platelet aggregation ([1]; −G6PD control (non-metabolite components of the reaction mixture)): did not inhibit platelet aggregation

Compound: COC(=O)C(c1ccccc1Cl)N1CCC(SSCC(NC(C)=O)C(=O)O)C(=CC(=O)O)C1 (stereo not drawn) [NAC conjugate]
- first order rate constant for the loss of the mixed disulfide conjugate ([2]; 1 mM GSH): 0.43 min⁻¹
- second order rate constant for the loss of the conjugate [2]: 7.2 M⁻¹ s⁻¹

Compound: COC(=O)C(c1ccccc1Cl)N1CCC(SSc2ncccc2[N+](=O)[O-])C(=CC(=O)O)C1 (stereo not drawn) [NPT conjugate]
- inhibition of platelet aggregation [1, 3]: ~70%
- inhibition of platelet aggregation, conjugate itself ([1]; normalized to PRP): did not inhibit platelet aggregation
- first order rate constant for the loss of the mixed disulfide conjugate ([2]; 1 mM GSH): 0.13 min⁻¹
- second order rate constant for the loss of the conjugate [2]: 2.2 M⁻¹ s⁻¹
